Test results from PMC12300041, “Tricyclic Isatin Derivatives as Anti-Inflammatory Compounds with High Kinase Binding Affinity” (Molecules, 2025).

Columns and labels:
Assay in all cases: KINOMEscan
Format in all cases: binding
[1] = target: T1, SRPK1 (Homo sapiens, UniProt Q96SB4)
T1 construct: purchased Eurofins DiscoverX KINOMEscan
Method in brief: (§1)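 A 12-point half-log dilution series topping at 33 μM defined each Kd. The kinase fraction escaping compound binding over 1 h at room temperature was trapped by an immobilized affinity ligand and measured by quantitative PCR.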

[2] = target: T2, LIMK2 (Homo sapiens, UniProt P53671)
T2 construct: purchased Eurofins DiscoverX KINOMEscan
Method in brief: (§2)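 Competition binding run for 1 h at room temperature; kinase left unbound by compound was captured on an immobilized affinity ligand and quantified by qPCR. Kd was taken from a 12-point half-log dilution series with a 33 μM top concentration.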

[3] = target: T3, IRAK3 (Homo sapiens, UniProt Q9Y616)
T3 construct: purchased Eurofins DiscoverX KINOMEscan
Method in brief: as §1

[4] = target: T4, CLK4 (Homo sapiens, UniProt Q9HAZ1)
T4 construct: purchased Eurofins DiscoverX KINOMEscan
Method in brief: as §1

[5] = target: T5, TYRO3 (Homo sapiens, UniProt Q06418)
T5 construct: purchased Eurofins DiscoverX KINOMEscan
Method in brief: as §2

[6] = target: T6, ASK1 (Homo sapiens, UniProt Q99683)
T6 construct: purchased Eurofins DiscoverX KINOMEscan
Method in brief: as §1

[7] = target: T7, FGFR2 (Homo sapiens, UniProt P21802)
T7 construct: purchased Eurofins DiscoverX KINOMEscan
Method in brief: as §2

[8] = target: T8, EPHA5 (Homo sapiens, UniProt P54756)
T8 construct: purchased Eurofins DiscoverX KINOMEscan
Method in brief: as §1

[9] = target: T9, MLK2 (Homo sapiens, UniProt Q02779)
T9 construct: purchased Eurofins DiscoverX KINOMEscan
Method in brief: as §2

[10] = target: T10, CDK11 (Homo sapiens, UniProt Q9BWU1)
T10 construct: purchased Eurofins DiscoverX KINOMEscan
Method in brief: as §2

[11] = target: T11, p38-α (Homo sapiens, UniProt Q16539)
T11 construct: purchased Eurofins DiscoverX KINOMEscan
Method in brief: as §2

[12] = target: T12, RSK4 (Kin. Dom.1-N-term.) (Homo sapiens, UniProt Q9UK32)
T12 construct: RSK4 (Kin. Dom.1-N-term.); purchased Eurofins DiscoverX KINOMEscan
Method in brief: as §1

[13] = target: T13, QSK (Homo sapiens, UniProt Q9Y2K2)
T13 construct: purchased Eurofins DiscoverX KINOMEscan
Method in brief: as §2

[14] = target: T14, BIKE (Homo sapiens, UniProt Q9NSY1)
T14 construct: purchased Eurofins DiscoverX KINOMEscan
Method in brief: as §1

[15] = target: T15, STK39 (Homo sapiens, UniProt Q9UEW8)
T15 construct: purchased Eurofins DiscoverX KINOMEscan
Method in brief: as §2

[16] = target: T16, ABL1-non-P (Homo sapiens, UniProt P00519)
T16 construct: purchased Eurofins DiscoverX KINOMEscan
Method in brief: as §2

[17] = target: T17, STK35 (Homo sapiens, UniProt Q8TDR2)
T17 construct: purchased Eurofins DiscoverX KINOMEscan
Method in brief: as §1

[18] = target: T18, TYK2 (JH2 domain-pseudokinase) (Homo sapiens, UniProt P29597)
T18 construct: TYK2 (JH2 domain-pseudokinase); purchased Eurofins DiscoverX KINOMEscan
Method in brief: as §2

[19] = target: T19, ABL1 (E255K)-P (Homo sapiens, UniProt P00519, E255K)
T19 construct: purchased Eurofins DiscoverX KINOMEscan
Method in brief: as §2

[20] = target: T20, FGFR1 (Homo sapiens, UniProt P11362)
T20 construct: purchased Eurofins DiscoverX KINOMEscan
Method in brief: as §2

[21] = target: T21, p38-β (Homo sapiens, UniProt Q15759)
T21 construct: purchased Eurofins DiscoverX KINOMEscan
Method in brief: as §2

[22] = target: T22, MLK1 (Homo sapiens, UniProt P80192)
T22 construct: purchased Eurofins DiscoverX KINOMEscan
Method in brief: as §2

[23] = target: T23, NEK9 (Homo sapiens, UniProt Q8TD19)
T23 construct: purchased Eurofins DiscoverX KINOMEscan
Method in brief: as §2

[24] = target: T24, LCK (Homo sapiens, UniProt P06239)
T24 construct: purchased Eurofins DiscoverX KINOMEscan
Method in brief: as §1

[25] = target: T25, ALK (Homo sapiens, UniProt Q9UM73)
T25 construct: purchased Eurofins DiscoverX KINOMEscan
Method in brief: as §2

[26] = target: T26, ROS1 (Homo sapiens, UniProt P08922)
T26 construct: purchased Eurofins DiscoverX KINOMEscan
Method in brief: as §2

[27] = target: T27, RSK3 (Kin. Dom.1-N-term.) (Homo sapiens, UniProt Q15349)
T27 construct: RSK3 (Kin. Dom.1-N-term.); purchased Eurofins DiscoverX KINOMEscan
Method in brief: as §2

[28] = target: T28, ROCK1 (Homo sapiens, UniProt Q13464)
T28 construct: purchased Eurofins DiscoverX KINOMEscan
Method in brief: as §2

[29] = target: T29, TIE2 (Homo sapiens, UniProt Q02763)
T29 construct: purchased Eurofins DiscoverX KINOMEscan
Method in brief: as §2

[30] = target: T30, SRC (Homo sapiens, UniProt P12931)
T30 construct: purchased Eurofins DiscoverX KINOMEscan
Method in brief: as §2

[31] = target: T31, AMPK-α1 (Homo sapiens, UniProt Q13131)
T31 construct: purchased Eurofins DiscoverX KINOMEscan
Method in brief: as §1

[32] = target: T32, LATS2 (Homo sapiens, UniProt Q9NRM7)
T32 construct: purchased Eurofins DiscoverX KINOMEscan
Method in brief: as §2

[33] = target: T33, LRRK2 (Homo sapiens, UniProt Q5S007)
T33 construct: purchased Eurofins DiscoverX KINOMEscan
Method in brief: as §1

[34] = target: T34, ACVRL1 (Homo sapiens, UniProt P37023)
T34 construct: purchased Eurofins DiscoverX KINOMEscan
Method in brief: as §1

[35] = target: T35, INSRR (Homo sapiens, UniProt P14616)
T35 construct: purchased Eurofins DiscoverX KINOMEscan
Method in brief: as §2

[36] = target: T36, AXL (Homo sapiens, UniProt P30530)
T36 construct: purchased Eurofins DiscoverX KINOMEscan
Method in brief: as §1

[37] = target: T37, VPS34 (Homo sapiens, UniProt Q8NEB9)
T37 construct: purchased Eurofins DiscoverX KINOMEscan
Method in brief: as §2

[38] = target: T38, EIF2AK1 (Homo sapiens, UniProt Q9BQI3)
T38 construct: purchased Eurofins DiscoverX KINOMEscan
Method in brief: as §2

[39] = target: T39, TAOK3 (Homo sapiens, UniProt Q9H2K8)
T39 construct: purchased Eurofins DiscoverX KINOMEscan
Method in brief: as §2

T9 sequence (Q02779 whole entry): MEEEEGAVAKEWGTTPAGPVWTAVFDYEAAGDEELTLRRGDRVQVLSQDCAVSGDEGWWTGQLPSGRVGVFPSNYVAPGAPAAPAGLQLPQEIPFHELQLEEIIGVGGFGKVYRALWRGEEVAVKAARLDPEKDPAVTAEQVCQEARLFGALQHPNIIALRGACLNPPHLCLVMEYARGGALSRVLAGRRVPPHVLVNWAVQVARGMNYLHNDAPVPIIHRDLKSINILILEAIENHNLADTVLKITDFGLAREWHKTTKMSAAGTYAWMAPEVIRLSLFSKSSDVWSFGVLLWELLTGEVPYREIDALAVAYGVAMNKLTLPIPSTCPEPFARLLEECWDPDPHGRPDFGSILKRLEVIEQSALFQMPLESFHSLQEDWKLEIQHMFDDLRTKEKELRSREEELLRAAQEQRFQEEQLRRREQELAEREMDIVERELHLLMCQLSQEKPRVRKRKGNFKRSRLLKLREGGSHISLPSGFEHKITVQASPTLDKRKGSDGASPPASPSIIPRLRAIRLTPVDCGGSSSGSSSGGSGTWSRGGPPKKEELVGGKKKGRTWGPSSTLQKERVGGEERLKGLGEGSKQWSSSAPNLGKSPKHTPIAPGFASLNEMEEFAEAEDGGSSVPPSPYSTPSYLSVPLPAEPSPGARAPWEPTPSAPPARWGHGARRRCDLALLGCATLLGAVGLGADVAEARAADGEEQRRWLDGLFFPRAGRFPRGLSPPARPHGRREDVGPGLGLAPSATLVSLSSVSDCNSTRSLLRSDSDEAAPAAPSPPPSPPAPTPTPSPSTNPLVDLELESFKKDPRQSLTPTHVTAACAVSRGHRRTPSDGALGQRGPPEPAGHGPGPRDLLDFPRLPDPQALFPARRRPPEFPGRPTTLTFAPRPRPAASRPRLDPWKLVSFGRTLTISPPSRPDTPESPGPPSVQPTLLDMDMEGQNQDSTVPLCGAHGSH
T2 sequence (P53671 whole entry): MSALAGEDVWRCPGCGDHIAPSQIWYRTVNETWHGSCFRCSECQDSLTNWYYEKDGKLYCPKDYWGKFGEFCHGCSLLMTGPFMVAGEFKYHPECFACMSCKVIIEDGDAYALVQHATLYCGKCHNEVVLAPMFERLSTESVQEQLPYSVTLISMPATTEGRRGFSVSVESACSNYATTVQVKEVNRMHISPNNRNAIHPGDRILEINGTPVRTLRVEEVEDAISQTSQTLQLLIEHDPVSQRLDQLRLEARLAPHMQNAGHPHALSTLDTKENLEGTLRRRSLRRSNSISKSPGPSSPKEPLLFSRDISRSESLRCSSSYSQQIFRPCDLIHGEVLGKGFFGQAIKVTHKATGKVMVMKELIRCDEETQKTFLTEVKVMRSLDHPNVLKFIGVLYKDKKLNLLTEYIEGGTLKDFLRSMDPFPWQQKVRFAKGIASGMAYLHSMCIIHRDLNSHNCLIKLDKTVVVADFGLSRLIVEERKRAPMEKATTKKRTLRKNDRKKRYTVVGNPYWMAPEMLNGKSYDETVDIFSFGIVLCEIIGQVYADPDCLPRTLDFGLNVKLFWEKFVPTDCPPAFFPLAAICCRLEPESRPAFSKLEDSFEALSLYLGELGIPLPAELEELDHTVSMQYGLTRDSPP
T34 sequence (P37023 22-503): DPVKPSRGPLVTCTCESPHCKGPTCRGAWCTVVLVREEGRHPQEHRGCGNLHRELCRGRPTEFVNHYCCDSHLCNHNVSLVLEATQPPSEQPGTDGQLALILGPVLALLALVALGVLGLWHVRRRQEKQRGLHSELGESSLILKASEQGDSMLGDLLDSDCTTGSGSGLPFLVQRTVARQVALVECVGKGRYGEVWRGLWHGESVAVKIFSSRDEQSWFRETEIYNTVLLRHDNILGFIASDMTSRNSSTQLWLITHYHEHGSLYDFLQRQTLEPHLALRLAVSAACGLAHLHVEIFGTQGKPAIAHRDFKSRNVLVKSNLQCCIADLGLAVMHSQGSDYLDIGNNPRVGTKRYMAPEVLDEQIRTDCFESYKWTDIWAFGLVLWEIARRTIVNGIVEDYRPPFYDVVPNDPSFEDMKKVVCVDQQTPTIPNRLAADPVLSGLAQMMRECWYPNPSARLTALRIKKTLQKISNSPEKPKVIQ
T28 sequence (Q13464 whole entry): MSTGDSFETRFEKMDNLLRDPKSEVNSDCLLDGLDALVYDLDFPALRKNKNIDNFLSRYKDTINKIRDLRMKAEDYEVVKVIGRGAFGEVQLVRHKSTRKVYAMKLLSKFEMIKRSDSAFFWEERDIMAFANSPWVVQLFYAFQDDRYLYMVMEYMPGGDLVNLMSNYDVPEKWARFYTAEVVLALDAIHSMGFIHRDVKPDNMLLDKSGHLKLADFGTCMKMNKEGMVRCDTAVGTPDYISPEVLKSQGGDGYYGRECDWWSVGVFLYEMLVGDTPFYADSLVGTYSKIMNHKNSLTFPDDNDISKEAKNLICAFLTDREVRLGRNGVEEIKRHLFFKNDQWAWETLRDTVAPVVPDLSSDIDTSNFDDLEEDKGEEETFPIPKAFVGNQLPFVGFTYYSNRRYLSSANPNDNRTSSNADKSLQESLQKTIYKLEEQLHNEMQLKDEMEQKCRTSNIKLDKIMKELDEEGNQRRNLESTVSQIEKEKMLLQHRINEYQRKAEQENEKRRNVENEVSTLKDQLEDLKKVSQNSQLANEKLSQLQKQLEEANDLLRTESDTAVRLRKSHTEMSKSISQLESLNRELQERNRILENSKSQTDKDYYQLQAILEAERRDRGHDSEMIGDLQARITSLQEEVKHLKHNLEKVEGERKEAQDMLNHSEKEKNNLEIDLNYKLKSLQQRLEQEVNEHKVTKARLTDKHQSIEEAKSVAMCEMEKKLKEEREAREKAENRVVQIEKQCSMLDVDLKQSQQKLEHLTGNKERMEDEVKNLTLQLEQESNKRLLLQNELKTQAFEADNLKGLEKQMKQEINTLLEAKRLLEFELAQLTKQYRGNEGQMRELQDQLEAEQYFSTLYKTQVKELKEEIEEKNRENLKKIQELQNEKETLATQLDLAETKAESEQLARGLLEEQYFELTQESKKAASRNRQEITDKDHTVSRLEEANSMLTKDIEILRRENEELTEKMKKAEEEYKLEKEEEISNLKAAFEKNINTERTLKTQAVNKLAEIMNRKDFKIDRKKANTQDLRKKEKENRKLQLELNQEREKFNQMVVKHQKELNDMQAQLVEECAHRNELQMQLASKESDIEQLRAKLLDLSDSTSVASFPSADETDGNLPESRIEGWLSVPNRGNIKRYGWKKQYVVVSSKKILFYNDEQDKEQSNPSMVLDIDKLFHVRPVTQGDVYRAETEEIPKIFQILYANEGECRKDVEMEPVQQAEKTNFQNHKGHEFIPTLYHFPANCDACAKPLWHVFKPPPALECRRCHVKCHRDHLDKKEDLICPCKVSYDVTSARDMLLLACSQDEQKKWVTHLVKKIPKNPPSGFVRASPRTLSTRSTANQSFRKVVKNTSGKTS
T36 sequence (P30530 26-894): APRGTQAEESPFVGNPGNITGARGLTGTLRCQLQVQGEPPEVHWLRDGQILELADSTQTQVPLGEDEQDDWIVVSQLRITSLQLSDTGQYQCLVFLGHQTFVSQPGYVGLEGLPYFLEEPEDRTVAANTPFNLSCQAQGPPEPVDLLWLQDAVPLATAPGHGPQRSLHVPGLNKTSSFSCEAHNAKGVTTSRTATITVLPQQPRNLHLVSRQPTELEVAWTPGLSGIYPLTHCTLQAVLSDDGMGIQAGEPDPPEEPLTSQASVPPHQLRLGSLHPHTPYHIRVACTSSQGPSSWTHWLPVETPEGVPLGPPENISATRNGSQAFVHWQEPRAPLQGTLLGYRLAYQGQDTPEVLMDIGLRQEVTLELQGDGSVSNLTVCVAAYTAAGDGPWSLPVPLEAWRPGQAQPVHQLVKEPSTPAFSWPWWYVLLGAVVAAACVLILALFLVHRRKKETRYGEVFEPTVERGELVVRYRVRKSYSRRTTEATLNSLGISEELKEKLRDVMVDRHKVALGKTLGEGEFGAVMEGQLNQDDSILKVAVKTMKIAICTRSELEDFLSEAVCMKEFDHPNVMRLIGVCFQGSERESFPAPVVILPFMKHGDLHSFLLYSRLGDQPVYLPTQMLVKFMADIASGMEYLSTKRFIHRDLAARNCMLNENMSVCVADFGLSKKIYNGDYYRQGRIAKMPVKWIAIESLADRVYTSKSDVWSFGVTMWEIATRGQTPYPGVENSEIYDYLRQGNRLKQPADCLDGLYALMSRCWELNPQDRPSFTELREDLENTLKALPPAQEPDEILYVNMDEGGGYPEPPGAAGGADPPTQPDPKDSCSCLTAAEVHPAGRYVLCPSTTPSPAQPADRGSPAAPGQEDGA
T18 sequence (P29597 556-888 limits assumed): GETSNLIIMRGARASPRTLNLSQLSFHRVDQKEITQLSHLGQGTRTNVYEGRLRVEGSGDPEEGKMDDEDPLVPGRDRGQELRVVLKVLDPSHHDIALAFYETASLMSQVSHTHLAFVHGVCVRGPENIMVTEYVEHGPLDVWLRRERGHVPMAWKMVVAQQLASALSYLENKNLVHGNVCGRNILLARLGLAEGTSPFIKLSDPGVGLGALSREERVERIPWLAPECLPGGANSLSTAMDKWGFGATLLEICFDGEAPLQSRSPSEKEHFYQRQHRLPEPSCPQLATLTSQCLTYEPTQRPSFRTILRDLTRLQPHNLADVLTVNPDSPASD
T11 sequence (Q16539 whole entry): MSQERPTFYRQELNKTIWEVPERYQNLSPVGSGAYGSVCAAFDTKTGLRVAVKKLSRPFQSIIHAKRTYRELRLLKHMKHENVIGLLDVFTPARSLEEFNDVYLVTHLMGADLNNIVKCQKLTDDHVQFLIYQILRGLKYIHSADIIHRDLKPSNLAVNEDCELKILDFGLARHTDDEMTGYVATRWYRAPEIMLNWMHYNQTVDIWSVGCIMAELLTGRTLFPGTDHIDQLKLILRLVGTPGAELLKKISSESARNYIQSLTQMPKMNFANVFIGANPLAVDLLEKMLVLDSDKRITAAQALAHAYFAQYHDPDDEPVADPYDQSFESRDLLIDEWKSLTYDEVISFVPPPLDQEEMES

Question: What does the source list for `O=C1Nc2c(cc([N+](=O)[O-])c3c2CCCC3)C1=NO` [Compound 5d, 3-(Hydroxyimino)-5-nitro-1,3,6,7,8,9-hexahydro-2H-benzo[g]indol-2-one]?
Answer: inhibition at 10 µM [1]: 53%; inhibition at 10 µM [2]: 0%; inhibition at 10 µM [3]: 32%; inhibition at 10 µM [4]: 93.9%; inhibition at 10 µM [5]: 18%; inhibition at 10 µM [6]: 50%; inhibition at 10 µM [7]: 19%; inhibition at 10 µM [8]: 9%; inhibition at 10 µM [9]: 4%; inhibition at 10 µM [10]: 1%; inhibition at 10 µM [11]: 0%; inhibition at 10 µM [12]: 77%; inhibition at 10 µM [13]: 14%; inhibition at 10 µM [14]: 75%; inhibition at 10 µM [15]: 53%; inhibition at 10 µM [16]: 54%; inhibition at 10 µM [17]: 1%; inhibition at 10 µM [18]: 89.8%; inhibition at 10 µM [19]: 57%; inhibition at 10 µM [20]: 5%; inhibition at 10 µM [21]: 15%; inhibition at 10 µM [22]: 18%; inhibition at 10 µM [23]: 32%; inhibition at 10 µM [24]: 29%; inhibition at 10 µM [25]: 46%; inhibition at 10 µM [26]: 67%; inhibition at 10 µM [27]: 2%; inhibition at 10 µM [28]: 61%; inhibition at 10 µM [29]: 21%; inhibition at 10 µM [30]: 28%; inhibition at 10 µM [31]: 28%; inhibition at 10 µM [32]: 28%; inhibition at 10 µM [33]: 96%; inhibition at 10 µM [34]: 0%; inhibition at 10 µM [35]: 4%; inhibition at 10 µM [36]: 17%; inhibition at 10 µM [37]: 27%; inhibition at 10 µM [38]: 40%; inhibition at 10 µM [39]: 65%
